Measurements reported in the supplement of paper PMC10307832.

Experiments:
Test in all cases: relative viability (nuclei count vs DMSO), 5 days (fraction); higher = more cells survive
[1] = compound: CCc1c2c(nc3ccc(OC(=O)N4CCC(N5CCCCC5)CC4)cc13)-c1cc3c(c(=O)n1C2)COC(=O)[C@]3(O)CC [Irinotecan] + NC(=O)Nc1cc(-c2cccc(F)c2)sc1C(=O)N[C@H]1CCCNC1 [AZD7762] (partner 0.2 µM)
Method in brief: (§1)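 Each reported value is a median over duplicate plates. It expresses relative viability: treated-well nuclei count divided by vehicle-well nuclei count. Lung cancer cell lines in 1536-well plates were dosed by pin tool a day after seeding, alone with one drug or with a fixed anchor-drug dose plus five library-drug doses (not always all listed) in √10 steps, and nuclei were counted after 5 days.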

[2] = compound: Cn1cc(-c2cnc3ccc4ccc(CS(=O)(=O)NCc5ccccn5)cc4c(=O)c3c2)cn1 [MK-8033] + Cc1nc(Nc2ncc(C(=O)Nc3c(C)cccc3Cl)s2)cc(N2CCN(CCO)CC2)n1 [Dasatinib] (partner 0.075 µM)
Method in brief: as §1

[3] = compound: Cn1cc(-c2cnc3ccc4ccc(CS(=O)(=O)NCc5ccccn5)cc4c(=O)c3c2)cn1 [MK-8033] + COc1cc2c(Oc3ccc(NC(=O)C4(C(=O)Nc5ccc(F)cc5)CC4)cc3F)ccnc2cc1OCCCN1CCOCC1 [Foretinib] (partner 0.25 µM)
Method in brief: as §1

[4] = compound: CC[C@@H](C)CNCC(=O)N1CCC2=C([C@@H]1COC3=CC=CC(=C3)C)C=CS2 [RU-SKI 43] + Nc1nc2[nH]cc(CCc3ccc(C(=O)N[C@@H](CCC(=O)O)C(=O)O)cc3)c2c(=O)[nH]1 [Pemetrexed] (partner 0.2 µM)
Method in brief: as §1

Row | Cell Line | relative viability ([1]; first compound 0.6325 µM) | relative viability ([1]; first compound 2 µM) | relative viability ([1]; first compound 6.325 µM) | relative viability ([1]; first compound 20 µM) | relative viability ([2]; first compound 0.02 µM) | relative viability ([2]; first compound 0.06325 µM) | relative viability ([2]; first compound 0.2 µM) | relative viability ([2]; first compound 0.6325 µM) | relative viability ([2]; first compound 2 µM) | relative viability ([3]; first compound 0.02 µM) | relative viability ([3]; first compound 0.06325 µM) | relative viability ([3]; first compound 0.2 µM) | relative viability ([3]; first compound 0.6325 µM) | relative viability ([3]; first compound 2 µM) | relative viability ([4]; first compound 0.1 µM) | relative viability ([4]; first compound 0.3162 µM) | relative viability ([4]; first compound 1 µM) | relative viability ([4]; first compound 3.162 µM) | relative viability ([4]; first compound 10 µM)
1 | NCI-H838 | 0.887 | 0.787 | 0.749 | 0.645 | 0.258 | 0.281 | 0.259 | 0.279 | 0.247 | 1.05 | 0.993 | 0.994 | 0.89 | 0.954 | 0.256 | 0.248 | 0.251 | 0.251 | 0.249
2 | NCI-H1755 | 0.53 | 0.47 | 0.345 | 0.327 | 0.41 | 0.382 | 0.415 | 0.421 | 0.443 | 0.961 | 0.884 | 0.865 | 0.889 | 0.949 | 0.374 | 0.466 | 0.378 | 0.377 | 0.637
3 | NCI-H1666 | 0.815 | 0.687 | 0.552 | 0.503 | 0.907 | 0.769 | 0.73 | 0.872 | 0.827 | 1.02 | 0.842 | 0.911 | 0.953 | 1.01 | 0.864 | 0.914 | 0.901 | 0.815 | 0.844
4 | NCI-H2085 | 0.771 | 0.942 | 0.957 | 0.672 | 0.209 | 0.246 | 0.247 | 0.265 | 0.225 | 0.914 | 0.75 | 1.23 | 0.919 | 0.951 | 1.02 | 0.899 | 0.894 | 0.85 | 0.845
